Test results: US11412737B2, “Mixtures of beflubutamid or optically enriched forms thereof with a second herbicide” (FMC Corporation, priority 2016, dated 2022)

Assays:
Barnyardgrass (ECHCG) = assay: pre-emergence test, weed control; type: in vivo, Echinochloa crus-galli; conditions: pre-emergent, 28 DAT; rate g ai/ha by row: r5 94, r6 125, r7 250, r8 62.5, r9 125, r10 250, r11 94+62.5, r12 125+62.5, r13 94+125, r14 125+125, r15 94+250, r16 125+250, r17 78.8, r18 157.5, r19 315, r20 94+78.8, r21 125+78.8, r22 94+157.5, r23 125+157.5, r24 94+315, r25 125+315
Procedure: (§1) Test compositions containing the test compounds were diluted with water to provide the appropriate test rate concentrations.
(§2) For pre-emergence testing, four disposable fiber flats (6 inch by 10 inch) for each rate of application of each herbicide solution were filled with top soil, to which seeds of each species were planted in furrows made by a template pressed on the top of the soil. The furrows were covered with soil after planting the seed and were watered well before application of the test compounds.
(§3) Fiber flats designated for treatment were placed in a spray chamber having a static platform and a movable sprayer and the height of the spray nozzle was 10.5 inches above the soil level. Once the sprayer was calibrated using water for spray volume of 30 gallons per acre, flats were sprayed with sprayer at a speed to receive a coverage equivalent of 30 gallons per acre. […]
(§4) The control of weeds was evaluated in each experimental test at 21 for wheat and 28 days after treatment (DAT) for all species. Data were analyzed using Minitab software at 95% confidence interval. […] Percent control was determined by a method similar to the 0 to 100 rating system disclosed in “Research Methods in Weed Science,” 2nd ed., B. Truelove, Ed.; Southern Weed Science Society; Auburn University, Auburn, Ala., 1977. […]

Goosegrass (ELEIN) = assay: pre-emergence test, weed control; type: in vivo; conditions: pre-emergent, 28 DAT; rate g ai/ha by row: r5 94, r6 125, r7 250, r8 62.5, r9 125, r10 250, r11 94+62.5, r12 125+62.5, r13 94+125, r14 125+125, r15 94+250, r16 125+250, r17 78.8, r18 157.5, r19 315, r20 94+78.8, r21 125+78.8, r22 94+157.5, r23 125+157.5, r24 94+315, r25 125+315
Procedure: as §1, §2
(§5) Fiber flats designated for treatment were placed in a spray chamber having a static platform and a movable sprayer and the height of the spray nozzle was 10.5 inches above the soil level. Once the sprayer was calibrated using water for spray volume of 30 gallons per acre, flats were sprayed with sprayer at a speed to receive a coverage equivalent of 30 gallons per acre. The application rates are those shown in the Tables below for the individual herbicidal solutions and the herbicide compositions of this invention. The pre-emergence flats were immediately placed in the greenhouse and watered lightly after treatment. Thereafter they were regularly watered and fertilized for the duration of the test.
(§6) The control of weeds was evaluated in each experimental test at 21 for wheat and 28 days after treatment (DAT) for all species. Data were analyzed using Minitab software at 95% confidence interval. The results, shown as an average of the replications, were compared with results observed in untreated control flats in the same tests. Percent control was determined by a method similar to the 0 to 100 rating system disclosed in “Research Methods in Weed Science,” 2nd ed., B. Truelove, Ed.; Southern Weed Science Society; Auburn University, Auburn, Ala., 1977. The rating system is as follows in Table 1.

Large crabgrass (DIGSA) = assay: pre-emergence test, weed control; type: in vivo; conditions: pre-emergent, 28 DAT, rate g ai/ha by row: r4 94, r5 50, r6 100, r7 52.5, r8 70, r9 94+52.5, r10 94+70, r11 50+52.5, r12 50+70, r13 100+52.5, r14 100+70
Procedure: as §1, §2, §5, §6

Common chickweed (STEME) [1] = assay: pre-emergence test, weed control; type: in vivo, Stellaria media; conditions: pre-emergent, 28 DAT; BFL at 187.5 g, PYX at 90 g, combination of both
Procedure: as §1, §2, §3, §4

[2] = test system: Common lambsquarters (CHEAL); assay: pre-emergence test, weed control; type: in vivo, Chenopodium album; conditions: pre-emergent, 28 DAT, (+)-BFL >95% e.e.; rate g ai/ha by row: r6 62.5, r7 125, r8 62.5, r9 125, r10 222, r11 445, r12 22.5, r13 45, r14 62.5+62.5, r15 125+62.5, r16 62.5+125, r17 125+125, r18 62.5+222, r19 125+222, r20 62.5+445, r21 125+445, r22 62.5+22.5, r23 125+22.5, r24 62.5+45, r25 125+45
Procedure: as §1, §2, §5, §6

Green foxtail (SETVI) [3] = assay: pre-emergence test, weed control; type: in vivo, Setaria viridis; conditions: pre-emergent, 28 DAT
Procedure: as §1, §2, §5, §6

Jimsonweed (DATST) = assay: pre-emergence test, weed control; type: in vivo, Datura stramonium; conditions: pre-emergent, 28 DAT; BFL at 187.5 g, PYX at 90 g, combination of both
Procedure: as §1, §2, §5, §6

Wild oat (AVEFA) [4] = assay: pre-emergence test, weed control; type: in vivo, Avena fatua; conditions: pre-emergent, 28 DAT
Procedure: as §1, §2, §5, §6

Blackgrass (ALOMY) = assay: pre-emergence test, weed control; type: in vivo; conditions: pre-emergent, 28 DAT
Procedure: as §1, §2, §5, §6

Cheat grass (BROSE) = assay: pre-emergence test, weed control; type: in vivo; conditions: pre-emergent, 28 DAT, (+)-BFL >95% e.e.; rate g ai/ha by row: r6 62.5, r7 125, r8 62.5, r9 125, r10 222, r11 445, r12 22.5, r13 45, r14 62.5+62.5, r15 125+62.5, r16 62.5+125, r17 125+125, r18 62.5+222, r19 125+222, r20 62.5+445, r21 125+445, r22 62.5+22.5, r23 125+22.5, r24 62.5+45, r25 125+45
Procedure: as §1, §2, §5, §6

Hemp sesbania (SEHE8) = assay: pre-emergence test, weed control; type: in vivo; conditions: pre-emergent, 28 DAT; BFL at 187.5 g, PYX at 90 g, combination of both
Procedure: as §1, §2, §5, §6

Yellow foxtail (SETLU) = assay: pre-emergence test, weed control; type: in vivo; conditions: pre-emergent, 28 DAT
Procedure: as §1, §2, §5, §6

Palmer amaranth (AMAPA) = assay: pre-emergence test, weed control; type: in vivo, Amaranthus palmeri; conditions: pre-emergent, 28 DAT, (−)-BFL >95% e.e.; rate g ai/ha by row: r6 62, r7 125, r8 125, r9 250, r10 445, r11 890, r12 45, r13 90, r14 62+125, r15 125+125, r16 62+250, r17 125+250, r18 62+445, r19 125+445, r20 62+890, r21 125+890, r22 62+45, r23 125+45, r24 62+90, r25 125+90
Procedure: as §1, §2, §5, §6

Green foxtail (SETVI) [5] = assay: post-emergence test, weed control; type: in vivo, Setaria viridis; conditions: post-emergent, 28 DAT; BFL at 187.5 g, PYX at 90 g, combination of both
Procedure: as §1
(§7) For post-emergence testing, seeds of each species for each rate of application of each herbicide solution were planted in 7.5 cm×7.5 cm plastic pots filled with potting soil. The seeds were germinated and the resulting plants were allowed to grow in a greenhouse until they reached a growth stage, such as height, suitable for testing. Treatments were applied using compressed air in a track spray chamber at 30 gallons/acre (280 L/ha) using a TeeJet 8001E nozzle at 40 psi (2.76 bars). Pots of post-emergent treated plants were returned to the greenhouse and not watered for 24 hours after treatment. Thereafter they were regularly watered and fertilized for the duration of the test.
as §6

Redrice (ORYSA) = assay: post-emergence test, weed control; type: in vivo; conditions: post-emergent, 28 DAT; BFL at 187.5 g, PYX at 90 g, combination of both
Procedure: as §1, §7, §6

Wild oat (AVEFA) [6] = assay: post-emergence test, weed control; type: in vivo, Avena fatua; conditions: post-emergent, 28 DAT; BFL at 187.5 g, PYX at 90 g, combination of both
Procedure: as §1, §7, §6

Common chickweed (STEME) [7] = assay: post-emergence test, weed control; type: in vivo, Stellaria media; conditions: post-emergent, 28 DAT; BFL at 187.5 g, PYX at 45 g, combination of both
Procedure: as §1
For post-emergence testing, seeds of each species for each rate of application of each herbicide solution were planted in 7.5 cm×7.5 cm plastic pots filled with potting soil. The seeds were germinated and the resulting plants were allowed to grow in a greenhouse until they reached a growth stage, such as height, suitable for testing. […] Pots of post-emergent treated plants were returned to the greenhouse and not watered for 24 hours after treatment. Thereafter they were regularly watered and fertilized for the duration of the test.
The control of weeds was evaluated in each experimental test at 21 for wheat and 28 days after treatment (DAT) for all species. […] The rating system is as follows in Table 1.

[8] = (+)-BFL >95% e.e., rate g ai/ha by row: r6 62.5, r7 125, r8 62.5, r9 125, r10 222, r11 445, r12 22.5, r13 45, r14 62.5+62.5, r15 125+62.5, r16 62.5+125, r17 125+125, r18 62.5+222, r19 125+222, r20 62.5+445, r21 125+445, r22 62.5+22.5, r23 125+22.5, r24 62.5+45, r25 125+45, 22.5 g ai/ha
[9] = (+)-BFL >95% e.e., rate g ai/ha by row: r6 62.5, r7 125, r8 62.5, r9 125, r10 222, r11 445, r12 22.5, r13 45, r14 62.5+62.5, r15 125+62.5, r16 62.5+125, r17 125+125, r18 62.5+222, r19 125+222, r20 62.5+445, r21 125+445, r22 62.5+22.5, r23 125+22.5, r24 62.5+45, r25 125+45, 45 g ai/ha
[10] = (−)-BFL >95% e.e., rate g ai/ha by row: r6 62, r7 125, r8 125, r9 250, r10 445, r11 890, r12 45, r13 90, r14 62+125, r15 125+125, r16 62+250, r17 125+250, r18 62+445, r19 125+445, r20 62+890, r21 125+890, r22 62+45, r23 125+45, r24 62+90, r25 125+90
[11] = (−)-BFL >95% e.e., rate g ai/ha by row: r6 62, r7 125, r8 125, r9 250, r10 445, r11 890, r12 45, r13 90, r14 62+125, r15 125+125, r16 62+250, r17 125+250, r18 62+445, r19 125+445, r20 62+890, r21 125+890, r22 62+45, r23 125+45, r24 62+90, r25 125+90, 45 g ai/ha
[12] = (−)-BFL >95% e.e., rate g ai/ha by row: r6 62, r7 125, r8 125, r9 250, r10 445, r11 890, r12 45, r13 90, r14 62+125, r15 125+125, r16 62+250, r17 125+250, r18 62+445, r19 125+445, r20 62+890, r21 125+890, r22 62+45, r23 125+45, r24 62+90, r25 125+90, 90 g ai/ha

SMILES: COC[C@H](C)N(C(=O)CCl)c1c(C)csc1C [Dimethanamid-P]
- percentage of weed control, Barnyardgrass ECHCG (Barnyardgrass (ECHCG)): 100%
- percentage of weed control, Goosegrass ELEIN (Goosegrass (ELEIN)): 96%
- percentage of weed control, DIGSA (Large crabgrass (DIGSA); 52.5 g ai/ha): 20%
- percentage of weed control, DIGSA (Large crabgrass (DIGSA); 70 g ai/ha): 25%

SMILES: Cn1nc(C(F)(F)F)c(CS(=O)(=O)C2=NOC(C)(C)C2)c1OC(F)F [PYX, Pyroxasulfone]
- control of common chickweed (Common chickweed (STEME) [1]): 67%
- percentage of weed control, CHEAL [2]: 100%
- percentage of weed control, SETVI (Green foxtail (SETVI) [3]; [8]): 97%
- percentage of weed control, SETVI (Green foxtail (SETVI) [3]; [9]): 99%
- percentage of weed control, SETVI (Green foxtail (SETVI) [3]; [10]): 99%
- control of jimsonweed (Jimsonweed (DATST)): 72%
- percentage of weed control, AVEFA (Wild oat (AVEFA) [4]; [8]): 98%
- percentage of weed control, AVEFA (Wild oat (AVEFA) [4]; [9]): 96%
- percentage of weed control, AVEFA (Wild oat (AVEFA) [4]; [11]): 100%
- percentage of weed control, AVEFA (Wild oat (AVEFA) [4]; [12]): 99%
- percentage of weed control, ALOMY (Blackgrass (ALOMY); (+)-BFL >95% e.e., rate g ai/ha by row: r6 62.5, r7 125, r8 62.5, r9 125, r10 222, r11 445, r12 22.5, r13 45, r14 62.5+62.5, r15 125+62.5, r16 62.5+125, r17 125+125, r18 62.5+222, r19 125+222, r20 62.5+445, r21 125+445, r22 62.5+22.5, r23 125+22.5, r24 62.5+45, r25 125+45): 100%
- percentage of weed control, ALOMY (Blackgrass (ALOMY); [11]): 100%
- percentage of weed control, ALOMY (Blackgrass (ALOMY); [12]): 99%
- percentage of weed control, BROSE (Cheat grass (BROSE)): 100%
- control of hemp sesbania (Hemp sesbania (SEHE8)): 67%
- percentage of weed control, SETLU (Yellow foxtail (SETLU); [8]): 99%
- percentage of weed control, SETLU (Yellow foxtail (SETLU); [9]): 100%
- percentage of weed control, SETLU (Yellow foxtail (SETLU); [10]): 100%
- percentage of weed control, AMAPA (Palmer amaranth (AMAPA)): 100%
- control of green foxtail (Green foxtail (SETVI) [5]): 66%
- control of red rice (Redrice (ORYSA)): 39%
- control of wild oats (Wild oat (AVEFA) [6]): 48%
- control of common chickweed (Common chickweed (STEME) [7]): 22%
